In ChEMBL document CHEMBL4308875, “Synthesis, antituberculosis studies and biological evaluation of new quinoline derivatives carrying 1,2,4-oxadiazole moiety” (Bioorg Med Chem Lett, 2019):
Converted amounts (≈) assume the structure as drawn.

Assays:
[1] = test system: Mycobacterium tuberculosis; test: Antitubercular activity against Mycobacterium tuberculosis H37Rv after 15 days by turbidometric method; type: functional; settings: 360 h
HepG2 = test: Cytotoxicity against human HepG2 cells after 24 hrs by MTT assay; type: cell-based; settings: HepG2, 24 h
Escherichia coli = test: Antibacterial activity against Escherichia coli ATCC 25922 after 15 days by turbidometric method; type: functional; settings: ATCC 25922, 360 h
Staphylococcus aureus = test: Antibacterial activity against Staphylococcus aureus ATCC 33591 after 15 days by turbidometric method; type: functional; settings: ATCC 33591, 360 h
Acinetobacter baumannii = test: Antibacterial activity against Acinetobacter baumannii ATCC 19606 after 15 days by turbidometric method; type: functional; settings: ATCC 19606 = CIP 70.34 = JCM 6841
Enterococcus faecium = test: Antibacterial activity against Enterococcus faecium ATCC 51559 after 15 days by turbidometric method; type: functional; settings: ATCC 51559, 360 h
Klebsiella pneumoniae = test: Antibacterial activity against Klebsiella pneumoniae ATCC 700603 after 15 days by turbidometric method; type: functional; settings: Klebsiella pneumoniae, 700603, 360 h
Pseudomonas aeruginosa = test: Antibacterial activity against Pseudomonas aeruginosa ATCC 15442 after 15 days by turbidometric method; type: functional; settings: ATCC 15442, 360 h
[2] = test system: Mycobacterium tuberculosis; test: Bacteriostatic activity against Mycobacterium tuberculosis H37Rv assessed as colony forming units at 0.002 to 64 ug/ml measured day 3 post dose by time kill assay (reference value: 0 log10CFU/ml); type: functional
[3] = test system: Mycobacterium tuberculosis; test: Bacteriostatic activity against Mycobacterium tuberculosis H37Rv assessed as colony forming units at 0.002 to 64 ug/ml measured day 21 post dose by time kill assay (reference value: 0 log10CFU/ml); type: functional
[4] = test system: Mycobacterium tuberculosis; test: Bacteriostatic activity against Mycobacterium tuberculosis H37Rv assessed as colony forming units at 0.002 to 64 ug/ml measured day 14 post dose by time kill assay (reference value: 0 log10CFU/ml); type: functional
[5] = test system: Mycobacterium tuberculosis; test: Bacteriostatic activity against Mycobacterium tuberculosis H37Rv assessed as colony forming units at 0.002 to 64 ug/ml measured day 7 post dose by time kill assay (reference value: 0 log10CFU/ml); type: functional

For `c1cc(-c2ccc3c(N4CCN(Cc5noc(C6CCCC6)n5)CC4)ccnc3c2)ccn1`, the MIC [1] was 2 µg/mL (≈ 4.54 µM).
Work on `COc1cc(OC)cc(-c2nc(CN3CCN(c4ccnc5cc(-c6cc(F)cc(F)c6)ccc45)CC3)no2)c1` yielded an MIC [1] of 256 µg/mL (≈ 471 µM).
Work on `Fc1cc(F)cc(-c2ccc3c(N4CCN(Cc5noc(C6CCCC6)n5)CC4)ccnc3c2)c1` yielded an MIC [1] of 128 µg/mL (≈ 269 µM).
`Fc1cc(F)cc(-c2nc(CN3CCN(c4ccnc5cc(-c6ccncc6)ccc45)CC3)no2)c1` gave an MIC [1] of 16 µg/mL (≈ 33 µM).
Work on `Cc1cccc(-c2nc(CN3CCN(c4ccnc5cc(-c6cc(F)cc(F)c6)ccc45)CC3)no2)c1C` yielded an MIC [1] of 32 µg/mL (≈ 62.6 µM).
Work on `Fc1cc(F)cc(-c2ccc3c(N4CCN(Cc5noc(-c6cc(F)cc(F)c6)n5)CC4)ccnc3c2)c1` yielded an MIC [1] of 64 µg/mL (≈ 123 µM).
With `N#Cc1cccc(-c2nc(CN3CCN(c4ccnc5cc(-c6ccncc6)ccc45)CC3)no2)c1` the MIC [1] was 32 µg/mL (≈ 67.6 µM).
In the case of `Cc1cccc(-c2nc(CN3CCN(c4ccnc5cc(Cl)ccc45)CC3)no2)c1C`, the MIC [1] is reported as 64 µg/mL (≈ 147 µM).
Work on `COc1ccc(CCN2CCC(Nc3nc4ccccc4n3Cc3ccc(F)cc3)CC2)cc1` [ASTEMIZOLE] yielded an IC50 (HepG2) of 7.97 µM.
Compound `O=C(O)c1cn(C2CC2)c2cc(N3CCNCC3)c(F)cc2c1=O` [CIPROFLOXACIN] has an MIC (Escherichia coli) of 0.007 µg/mL (≈ 0.0211 µM), an MIC (Staphylococcus aureus) of under 1 µg/mL and an MIC (Acinetobacter baumannii) of under 1 µg/mL. The MIC (Enterococcus faecium) was 8 µg/mL (≈ 24.1 µM), the MIC (Klebsiella pneumoniae) was under 1 µg/mL and the MIC (Pseudomonas aeruginosa) was under 1 µg/mL.
In the case of `NNC(=O)c1ccncc1` [ISONIAZID], the MIC [1] is reported as 0.015 µg/mL (≈ 0.109 µM).
In the case of `CO[C@H]1/C=C/O[C@@]2(C)Oc3c(C)c(O)c4c(O)c(c(/C=N/N5CCN(C)CC5)c(O)c4c3C2=O)NC(=O)/C(C)=C\C=C\[C@H](C)[C@H](O)[C@@H](C)[C@@H](O)[C@@H](C)[C@H](OC(C)=O)[C@@H]1C` [RIFAMPIN], the Emax [2] is reported as 4.2 log10CFU/ml, the MIC [1] is reported as 0.03 µg/mL (≈ 0.0365 µM) and the Emax [3] is reported as 6.3 log10CFU/ml. For the same compound, the Emax [4] was 6.2 log10CFU/ml and the Emax [5] was 6.2 log10CFU/ml.
For `CN[C@H](CC(C)C)C(=O)N[C@H]1C(=O)N[C@@H](CC(N)=O)C(=O)N[C@H]2C(=O)N[C@H]3C(=O)N[C@H](C(=O)N[C@H](C(=O)O)c4cc(O)cc(O)c4-c4cc3ccc4O)[C@H](O)c3ccc(c(Cl)c3)Oc3cc2cc(c3O[C@@H]2O[C@H](CO)[C@@H](O)[C@H](O)[C@H]2O[C@H]2C[C@](C)(N)[C@H](O)[C@H](C)O2)Oc2ccc(cc2Cl)[C@H]1O` [VANCOMYCIN], the MIC (Escherichia coli) was over 512 µg/mL, the MIC (Acinetobacter baumannii) was 256 µg/mL (≈ 177 µM) and the MIC (Enterococcus faecium) was under 1 µg/mL. For the same compound, the MIC (Klebsiella pneumoniae) was 512 µg/mL (≈ 353 µM) and the MIC (Pseudomonas aeruginosa) was 512 µg/mL (≈ 353 µM).
